We go through one compound from US9993449B2, “(S)-3-amino-4-(difluoromethylenyl)cyclopent-1-ene-1-carboxylic acid, and related compounds as GABA aminotransferase inactivators for the treatment of epilepsy, addiction and hepatocellular carcinoma” (NORTHWESTERN UNIVERSITY, priority 2015, dated 2018).

One data set addresses T1, CYP1A (Homo sapiens, UniProt P05177).
T1 construct: tissue Eurofins Panlabs; host or cells: human liver microsomes
T1 sequence (P05177 1-516): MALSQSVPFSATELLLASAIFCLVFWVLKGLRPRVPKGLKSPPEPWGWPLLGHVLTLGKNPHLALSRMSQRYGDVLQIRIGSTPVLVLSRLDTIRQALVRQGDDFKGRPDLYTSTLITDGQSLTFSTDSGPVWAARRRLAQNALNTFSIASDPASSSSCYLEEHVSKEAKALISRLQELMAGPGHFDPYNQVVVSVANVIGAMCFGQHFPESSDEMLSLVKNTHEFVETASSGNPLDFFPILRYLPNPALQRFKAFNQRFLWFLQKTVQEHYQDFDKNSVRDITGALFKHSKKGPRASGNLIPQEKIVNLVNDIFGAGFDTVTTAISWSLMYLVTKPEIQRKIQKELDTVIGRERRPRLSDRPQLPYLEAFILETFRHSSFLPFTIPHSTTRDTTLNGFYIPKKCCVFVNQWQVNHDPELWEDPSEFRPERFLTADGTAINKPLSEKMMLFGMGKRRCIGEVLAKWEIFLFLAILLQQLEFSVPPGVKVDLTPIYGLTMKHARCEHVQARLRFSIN
As to the kind of experiment: CYP1A inhibition (HLM, phenacetin substrate). It counts as in vitro ADME. Conditions: 10 μM, 10 min at 37° C. Here is the method: (§1) Inhibition of Microsomal Cytochromes P450. The experiments were performed by Eurofins Panlabs (Redmond, Wash. 98052, USA). CYP1A inhibition (HLM, phenacetin substrate), CYP2B6 inhibition (HLM, bupropion substrate), CYP2C8 inhibition (HLM, paclitaxel substrate), CYP2C9 inhibition (HLM, diclofenac substrate), CYP2C19 inhibition (HLM, omeprazole substrate), CYP2D6 inhibition (HLM, dextromethorphan substrate), and CYP3A inhibition (HLM, midazolam and testosterone substrates) were tested. The test concentration was 10 μM. The incubation time was 10 min at 37° C. The detection method was by HPLC-MS/MS. The experiments were duplicated, and the % inhibition of the control values was averaged (FIG. 8).

The target in another data set is T2, CYP2C19 (Homo sapiens, UniProt P33261).
T2 construct: tissue Eurofins Panlabs; host or cells: human liver microsomes
Description: CYP2C19 inhibition (HLM, omeprazole substrate). It counts as in vitro ADME. Conditions: 10 μM, 10 min at 37° C. Here is the method:
as §1

Another data set deals with T3, CYP2C8 (Homo sapiens, UniProt P10632).
T3 construct: tissue Eurofins Panlabs; host or cells: human liver microsomes
T3 sequence (P10632 1-490): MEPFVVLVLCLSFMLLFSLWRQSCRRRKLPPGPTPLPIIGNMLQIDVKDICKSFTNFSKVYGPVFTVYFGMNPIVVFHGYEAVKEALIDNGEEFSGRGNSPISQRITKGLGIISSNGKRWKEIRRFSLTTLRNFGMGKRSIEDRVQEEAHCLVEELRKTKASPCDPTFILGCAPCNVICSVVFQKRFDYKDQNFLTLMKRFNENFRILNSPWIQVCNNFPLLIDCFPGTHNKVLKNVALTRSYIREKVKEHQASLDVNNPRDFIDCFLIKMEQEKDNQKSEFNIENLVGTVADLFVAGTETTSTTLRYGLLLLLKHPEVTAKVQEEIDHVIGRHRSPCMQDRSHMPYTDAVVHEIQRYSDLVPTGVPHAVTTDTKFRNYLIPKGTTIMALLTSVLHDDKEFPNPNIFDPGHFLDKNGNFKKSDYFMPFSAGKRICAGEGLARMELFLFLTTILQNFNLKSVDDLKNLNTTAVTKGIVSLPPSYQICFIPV
Description: CYP2C8 inhibition (HLM, paclitaxel substrate). It counts as in vitro ADME. The conditions noted are these: 10 μM, 10 min at 37° C. The procedure: as §1

Another data set has as its target T4, CYP2D6 (Homo sapiens, UniProt P10635).
T4 construct: tissue Eurofins Panlabs; host or cells: human liver microsomes
As to the kind of experiment: CYP2D6 inhibition (HLM, dextromethorphan substrate). It is filed as in vitro ADME. Conditions: 10 μM, 10 min at 37° C. The procedure:
as §1

In another data set the test system is CYP3A. Description: CYP3A inhibition (HLM, midazolam and testosterone substrates). It counts as in vitro ADME, human. The conditions noted are these: 10 μM, 10 min at 37° C. The procedure:
as §1

The next data set concerns striatal dopamine levels. Description: MicroPET imaging with 11C-raclopride: cocaine- or nicotine-induced dopamine elevation in freely moving rats. It is filed as in vivo, rat. The procedure:
Drug addiction results from the release of dopamine in the NAcc when an addictive substance is ingested. The effect of 1 on the release of dopamine in freely moving rats was determined using in vivo micropositron emission tomography (microPET) imaging (FIG. 10). (Dewey, S. L.; Morgan, A. E.; Ashby, C. R.; Horan, B.; Kushner, S. A.; Logan, J.; Volkow, N. D.; Fowler, J. S.; Gardner, E. L.; Brodie, J. D. Synapse 1998, 30 (2), 119-129). […] MicroPET was used to measure the dissociation of the tracer [^11C]-raclopride from dopamine receptors caused by either cocaine- or nicotine-induced increases in synaptic dopamine levels (the same images were obtained with cocaine and nicotine). When animals received cocaine (n=8) or nicotine (n=6), striatal dopamine levels were rapidly elevated. (Dewey, S. L.; Chaurasia, C. S.; Chen, C. E.; Volkow, N. D.; Clarkson, F. A.; Porter, S. P.; Straughter-Moore, R. M.; Alexoff, D. L.; Tedeschi, D.; Russo, N. B.; Fowler, J. S.; Brodie, J. D. Synapse 1997, 25 (4), 393-398). […] Therefore, 1 blocks both cocaine- and nicotine-induced elevations in dopamine.
MicroPET imaging. Adult male rats (Sprague-Dawley, 200-250 grams, n =16) were obtained from Taconic Farms. Animals were maintained on a 12/12 light-dark cycle. Scanning was performed using a Siemen's Inveon. All emission scans were corrected for attenuation. Animals received baseline microPET scans using either ^11C-raclopride or ^18FDG as described previously. (Patel, V. D.; Lee, D. E.; Alexoff, D. L.; Dewey, S. L.; Schiffer, W. K. Neuroimage 2008, 41 (3), 1051-1066.) Uptake of both radiotracers occurred while animals were awake and freely moving. Immediately prior to microPET scanning, all animals were anesthetized and maintained under isoflurane.

Another data set has as its target T5, CYP2C9 (Homo sapiens, UniProt P11712).
T5 construct: tissue Eurofins Panlabs; host or cells: human liver microsomes
As to the kind of experiment: CYP2C9 inhibition (HLM, diclofenac substrate). It is filed as in vitro ADME. The conditions noted are these: 10 μM, 10 min at 37° C. The procedure:
as §1

Data set [1] in a line: Metabolic stability in human liver microsomes (LC-MS/MS). The conditions noted are these: for 90 min. It is filed as in vitro ADME. The procedure:
This was accomplished by incubating 1 with the microsomes and monitoring its disappearance with time using LC-MS/MS. Terfenadine was run in similar condition as a positive control.
Background: Microsomes from liver hold many membrane-bound enzymes, among them those of drug oxidation.

Counter-ions that a name gives are not always drawn.

T5 sequence (P11712 whole entry): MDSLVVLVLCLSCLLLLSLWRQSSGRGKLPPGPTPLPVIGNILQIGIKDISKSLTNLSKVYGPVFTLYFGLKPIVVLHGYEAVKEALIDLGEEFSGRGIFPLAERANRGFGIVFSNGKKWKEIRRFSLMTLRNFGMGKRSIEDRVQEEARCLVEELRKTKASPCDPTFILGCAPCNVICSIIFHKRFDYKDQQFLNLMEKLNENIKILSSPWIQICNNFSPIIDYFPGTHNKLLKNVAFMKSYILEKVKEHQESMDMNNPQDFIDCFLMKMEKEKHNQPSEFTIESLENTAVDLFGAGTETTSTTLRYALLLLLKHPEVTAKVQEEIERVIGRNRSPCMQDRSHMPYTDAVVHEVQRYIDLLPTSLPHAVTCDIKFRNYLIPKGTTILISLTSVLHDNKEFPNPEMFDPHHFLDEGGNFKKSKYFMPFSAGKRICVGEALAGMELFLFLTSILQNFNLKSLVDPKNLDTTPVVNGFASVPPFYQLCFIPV
T2 sequence (P33261 whole entry): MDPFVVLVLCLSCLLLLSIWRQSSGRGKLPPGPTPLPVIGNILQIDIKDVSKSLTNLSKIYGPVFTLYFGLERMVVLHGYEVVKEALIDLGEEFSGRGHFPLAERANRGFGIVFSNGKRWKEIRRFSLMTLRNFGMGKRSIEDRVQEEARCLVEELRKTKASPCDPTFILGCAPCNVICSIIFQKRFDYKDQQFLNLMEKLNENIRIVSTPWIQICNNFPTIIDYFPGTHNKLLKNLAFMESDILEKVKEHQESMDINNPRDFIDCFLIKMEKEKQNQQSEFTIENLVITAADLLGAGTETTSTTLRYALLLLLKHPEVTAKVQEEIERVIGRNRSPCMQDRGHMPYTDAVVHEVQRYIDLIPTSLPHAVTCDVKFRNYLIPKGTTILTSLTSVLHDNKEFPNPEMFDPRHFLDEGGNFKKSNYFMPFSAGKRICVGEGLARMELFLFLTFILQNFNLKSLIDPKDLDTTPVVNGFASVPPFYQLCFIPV
T4 sequence (P10635 whole entry): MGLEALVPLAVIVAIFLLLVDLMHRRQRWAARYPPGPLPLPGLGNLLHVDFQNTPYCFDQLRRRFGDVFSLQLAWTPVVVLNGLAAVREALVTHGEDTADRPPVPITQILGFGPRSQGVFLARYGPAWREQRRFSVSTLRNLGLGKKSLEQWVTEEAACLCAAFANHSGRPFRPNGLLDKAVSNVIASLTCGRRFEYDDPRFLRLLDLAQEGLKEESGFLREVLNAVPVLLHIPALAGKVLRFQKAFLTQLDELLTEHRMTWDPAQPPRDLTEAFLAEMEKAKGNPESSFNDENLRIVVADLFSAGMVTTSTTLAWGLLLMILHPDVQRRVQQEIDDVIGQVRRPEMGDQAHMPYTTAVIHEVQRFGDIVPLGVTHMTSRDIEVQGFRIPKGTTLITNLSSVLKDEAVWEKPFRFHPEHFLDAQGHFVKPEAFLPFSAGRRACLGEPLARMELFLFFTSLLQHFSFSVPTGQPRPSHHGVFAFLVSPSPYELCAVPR

Take `N[C@H]1C=C(C(=O)O)CC1=C(F)F` [Compound 1, (S)-3-Amino-4-(difluoromethylenyl)cyclopent-1-ene-1-carboxylic acid Hydrochloride]: at CYP1A, the “inhibition or induction of CYP 1A” value is “does not inhibit or induce”. Also, the “inhibition or induction of CYP 2C19” value against CYP2C19 is recorded as “does not inhibit or induce”. Also, at CYP2C8, the “inhibition or induction of CYP 2C8” value is given as “does not inhibit or induce”. Moreover, the “inhibition or induction of CYP 2D6” value against CYP2D6 was “does not inhibit or induce”. In addition, in the data set on CYP3A, the “inhibition or induction of CYP 3A” value was “does not inhibit or induce”. Besides, the “suppressing the release of dopamine in the NAcc following a cocaine or nicotine challenge, compared with CPP-115” value with striatal dopamine levels is on record as “superior to CPP-115”. For the same compound, in the data set on striatal dopamine levels (1 given prior to cocaine, 11C-raclopride microPET), the “cocaine-induced elevations in dopamine” value is given as “blocks”. Further, the “nicotine-induced elevations in dopamine” value in the data set on striatal dopamine levels (1 given prior to nicotine, 11C-raclopride microPET) is on record as “blocks”. In addition, the “inhibition or induction of CYP 2C9” value at CYP2C9 is recorded as “does not inhibit or induce”. Moreover, the “metabolic stability in HLM” value in data set [1] is on record as “stable”.
